System: MV-4-11 cells
Assay: Gene expression microarray analysis (Affymetrix PrimeView) and GSEA
Format: cell-based, human
Set-up: RFU PODN (11730768_x_at) / Fold change /veh PODN (11730768_x_at) / RFU LINC00158 (11744669_a_at) / Fold change /veh LINC00158 (11744669_a_at) / RFU DUSP10 (11751237_a_at) / Fold change /veh DUSP10 (11751237_a_at) / RFU ID3 (11757404_x_at) / Fold change /veh ID3 (11757404_x_at) / RFU PLEKHG5 (11737974_s_at) / Fold change /veh PLEKHG5 (11737974_s_at) / RFU LRRC4B (11730491_at) / Fold change /veh LRRC4B (11730491_at) / RFU GIMAP4 (11747438_a_at) / Fold change /veh GIMAP4 (11747438_a_at) / RFU KRT8 (11758183_x_at) / Fold change /veh KRT8 (11758183_x_at) / RFU CNN1 (11734310_a_at) / Fold change /veh CNN1 (11734310_a_at) / RFU VPS37D (11726825_at) / Fold change /veh VPS37D (11726825_at) / RFU C10orf10 (11716522_x_at) / Fold change /veh C10orf10 (11716522_x_at) / RFU KIR2DL2 /// KIR2DL4 /// KIR2DL5A /// KIR2DL5B /// KIR2DS1 /// KIR2DS2 /// KIR2DS3 /// KIR2DS4 /// KIR3DL3 /// KIR3DL3 /// KIR3DS1 (11738374_at) / Fold change /veh KIR2DL2 /// KIR2DL4 /// KIR2DL5A /// KIR2DL5B /// KIR2DS1 /// KIR2DS2 /// KIR2DS3 /// KIR2DS4 /// KIR3DL3 /// KIR3DL3 /// KIR3DS1 (11738374_at) / RFU C1QL1 (11718748_at) / Fold change /veh C1QL1 (11718748_at) / RFU TMPRSS4 (11747572_a_at) / Fold change /veh TMPRSS4 (11747572_a_at) / RFU HAMP (11756126_x_at) / Fold change /veh HAMP (11756126_x_at) / RFU RNFT2 (11725882_a_at) / Fold change /veh RNFT2 (11725882_a_at) / RFU NR4A2 (11747474_a_at) / Fold change /veh NR4A2 (11747474_a_at) / RFU ABCC12 (11746883_a_at) / Fold change /veh ABCC12 (11746883_a_at) / RFU TMEM136 (11760407_x_at) / Fold change /veh TMEM136 (11760407_x_at) / RFU CLDN22 /// WWC2 (11732394_at) / Fold change /veh CLDN22 /// WWC2 (11732394_at) / RFU HLA-DPB1 (11760878_x_at) / Fold change /veh HLA-DPB1 (11760878_x_at) / RFU SPINT1 (11716480_a_at) / Fold change /veh SPINT1 (11716480_a_at) / RFU GAP43 (11754022_s_at) / Fold change /veh GAP43 (11754022_s_at) / RFU A4GNT (11735810_at) / Fold change /veh A4GNT (11735810_at) / RFU PRB3 (11715151_x_at) / Fold change /veh PRB3 (11715151_x_at) / RFU TUBB4B (11761932_at) / Fold change /veh TUBB4B (11761932_at) / RFU CAPN14 (11732068_a_at) / Fold change /veh CAPN14 (11732068_a_at) / RFU TMCC2 (11721928_a_at) / Fold change /veh TMCC2 (11721928_a_at) / RFU IRGQ (11745062_a_at) / Fold change /veh IRGQ (11745062_a_at) / RFU FAM174B (11720279_a_at) / Fold change /veh FAM174B (11720279_a_at) / RFU TMPRSS4 (11748680_a_at) / Fold change /veh TMPRSS4 (11748680_a_at) / RFU FAM212B (11763350_a_at) / Fold change /veh FAM212B (11763350_a_at) / RFU PLEKHG5 (11743358_a_at) / Fold change /veh PLEKHG5 (11743358_a_at) / RFU ZSCAN30 (11745921_a_at) / Fold change /veh ZSCAN30 (11745921_a_at) / RFU CMKLR1 (11741424_a_at) / Fold change /veh CMKLR1 (11741424_a_at) / RFU LOC101060620 /// MAPK8IP1 (11723275_at) / Fold change /veh LOC101060620 /// MAPK8IP1 (11723275_at) / RFU SPTSSB (11747773_x_at) / Fold change /veh SPTSSB (11747773_x_at) / RFU PRSS12 (11739890_at) / Fold change /veh PRSS12 (11739890_at) / RFU BIN1 (11741810_x_at) / Fold change /veh BIN1 (11741810_x_at) / RFU WNT11 (11732464_a_at) / Fold change /veh WNT11 (11732464_a_at) / RFU C10orf10 (11716521_a_at) / Fold change /veh C10orf10 (11716521_a_at) / RFU C5orf56 (11738089_at) / Fold change /veh C5orf56 (11738089_at) / RFU CYB561 (11721691_x_at) / Fold change /veh CYB561 (11721691_x_at) / RFU ANKRD19P (11752326_a_at) / Fold change /veh ANKRD19P (11752326_a_at) / RFU OR2T12 /// OR2T33 /// OR2T8 (11738714_s_at) / Fold change /veh OR2T12 /// OR2T33 /// OR2T8 (11738714_s_at) / RFU VCAN (11748164_a_at) / Fold change /veh VCAN (11748164_a_at) / RFU JSRP1 (11732532_at) / Fold change /veh JSRP1 (11732532_at) / RFU KRTAP10-11 (11738290_x_at) / Fold change /veh KRTAP10-11 (11738290_x_at) / RFU MYO3A (11730013_a_at) / Fold change /veh MYO3A (11730013_a_at) / RFU EBF3 (11725865_a_at) / Fold change /veh EBF3 (11725865_a_at) / RFU CAMK2N1 (11719241_x_at) / Fold change /veh CAMK2N1 (11719241_x_at) / RFU C5orf56 (11738088_a_at) / Fold change /veh C5orf56 (11738088_a_at) / RFU OLFML3 (11715873_a_at) / Fold change /veh OLFML3 (11715873_a_at) / RFU LOC100653217 /// NTM (11731650_a_at) / Fold change /veh LOC100653217 /// NTM (11731650_a_at) / RFU MAPK11 (11762145_a_at) / Fold change /veh MAPK11 (11762145_a_at) / RFU FIZ1 (11724087_x_at) / Fold change /veh FIZ1 (11724087_x_at) / RFU OASL (11726364_x_at) / Fold change /veh OASL (11726364_x_at) / RFU SOX15 (11748057_x_at) / Fold change /veh SOX15 (11748057_x_at) / RFU CD79A (11719716_a_at) / Fold change /veh CD79A (11719716_a_at) / RFU HIST1H1D (11736915_at) / Fold change /veh HIST1H1D (11736915_at) / RFU CASKIN2 (11723855_a_at) / Fold change /veh CASKIN2 (11723855_a_at) / RFU LOC730098 (11760151_x_at) / Fold change /veh LOC730098 (11760151_x_at) / RFU OR4N2 (11742367_at) / Fold change /veh OR4N2 (11742367_at) / RFU PRRT2 (11749266_a_at) / Fold change /veh PRRT2 (11749266_a_at) / RFU SNX32 (11753110_a_at) / Fold change /veh SNX32 (11753110_a_at) / RFU CDHR5 (11726645_a_at) / Fold change /veh CDHR5 (11726645_a_at) / RFU RCAN1 (11760418_a_at) / Fold change /veh RCAN1 (11760418_a_at) / RFU FAM167A (11723789_a_at) / Fold change /veh FAM167A (11723789_a_at) / RFU FAM26E (11764081_at) / Fold change /veh FAM26E (11764081_at) / RFU ISYNA1 (11749810_s_at) / Fold change /veh ISYNA1 (11749810_s_at) / RFU ACY1 (11761880_at) / Fold change /veh ACY1 (11761880_at) / RFU 11764098_at / Fold change /veh 11764098_at / RFU SAMD14 (11745864_x_at) / Fold change /veh SAMD14 (11745864_x_at) / RFU NPB (11741838_a_at) / Fold change /veh NPB (11741838_a_at) / RFU TMPRSS6 (11731388_a_at) / Fold change /veh TMPRSS6 (11731388_a_at) / RFU KRTAP10-2 (11738614_at) / Fold change /veh KRTAP10-2 (11738614_at) / RFU ARHGAP8 /// PRR5-ARHGAP8 (11727945_x_at) / Fold change /veh ARHGAP8 /// PRR5-ARHGAP8 (11727945_x_at) / RFU KRTAP5-7 /// NADSYN1 (11734609_at) / Fold change /veh KRTAP5-7 /// NADSYN1 (11734609_at) / RFU RASL12 (11751679_a_at) / Fold change /veh RASL12 (11751679_a_at) / RFU CDKN2B (11736163_a_at) / Fold change /veh CDKN2B (11736163_a_at) / RFU PRF1 (11729649_at) / Fold change /veh PRF1 (11729649_at) / RFU, ZNF638 /// ZNF638-IT1 / Fold change vs veh, ZNF638 /// ZNF638-IT1 / RFU, PANK3 / Fold change vs veh, PANK3 / RFU, SH3YL1 / Fold change vs veh, SH3YL1 / RFU, ZEB2 / Fold change vs veh, ZEB2 / RFU, NRIP1 / Fold change vs veh, NRIP1 / RFU, PTTG1IP / Fold change vs veh, PTTG1IP / RFU, CAPN2 / Fold change vs veh, CAPN2 / RFU, MED14 / Fold change vs veh, MED14 / RFU, SNORA58 / Fold change vs veh, SNORA58 / RFU, C1orf63 / Fold change vs veh, C1orf63 / RFU, LRRFIP1 / Fold change vs veh, LRRFIP1 / RFU, NDUFAF7 / Fold change vs veh, NDUFAF7 / RFU, SLC12A2 / Fold change vs veh, SLC12A2 / RFU, IBTK / Fold change vs veh, IBTK / RFU, ESF1 / Fold change vs veh, ESF1 / Fold change vs veh, TMEM50B / RFU, TAOK1 / Fold change vs veh, TAOK1 / RFU, ACBD3 / Fold change vs veh, ACBD3 / RFU, TMA16 / Fold change vs veh, TMA16 / RFU, RWDD3 / Fold change vs veh, RWDD3 / RFU, BCAT1 / Fold change vs veh, BCAT1 / RFU, EDEM3 / Fold change vs veh, EDEM3 / RFU, TMEM33 / Fold change vs veh, TMEM33 / RFU, WDR75 / Fold change vs veh, WDR75 / RFU, AHCTF1 / Fold change vs veh, AHCTF1 / RFU, TFRC / Fold change vs veh, TFRC / RFU, ZDHHC17 / Fold change vs veh, ZDHHC17 / RFU, NOM1 / Fold change vs veh, NOM1 / RFU, ARL8B / Fold change vs veh, ARL8B / RFU, ZBTB11 / Fold change vs veh, ZBTB11 / RFU, TAMM41 / Fold change vs veh, TAMM41 / RFU, KIAA1704 /// LOC100996395 / Fold change vs veh, KIAA1704 /// LOC100996395 / RFU, ING1 / Fold change vs veh, ING1 / RFU, TRMT61B / Fold change vs veh, TRMT61B / RFU, FUBP3 / Fold change vs veh, FUBP3 / RFU, TP53 / Fold change vs veh, TP53 / RFU, TNKS2 / Fold change vs veh, TNKS2 / RFU, ZFP14 / Fold change vs veh, ZFP14 / RFU, ACTR2 / Fold change vs veh, ACTR2 / RFU, PPP3R1 / Fold change vs veh, PPP3R1 / RFU, PIK3R1 / Fold change vs veh, PIK3R1 / RFU, HNRNPA1 / Fold change vs veh, HNRNPA1 / RFU, RNF170 / Fold change vs veh, RNF170 / RFU, ZNF28 / Fold change vs veh, ZNF28 / RFU, RNGTT / Fold change vs veh, RNGTT / RFU, OGT / Fold change vs veh, OGT / RFU, BRD1 / Fold change vs veh, BRD1 / RFU, MARS / Fold change vs veh, MARS / RFU, ZNF655 / Fold change vs veh, ZNF655 / RFU, FAHD1 / Fold change vs veh, FAHD1 / RFU, BDP1 / Fold change vs veh, BDP1 / RFU, LRRCC1 / Fold change vs veh, LRRCC1 / RFU, ARID1A / Fold change vs veh, ARID1A / RFU, ZNF146 / Fold change vs veh, ZNF146 / RFU, ZNF330 / Fold change vs veh, ZNF330 / RFU, GPN3 / Fold change vs veh, GPN3 / RFU, C9orf123 / Fold change vs veh, C9orf123 / RFU, N4BP2L2 / Fold change vs veh, N4BP2L2 / RFU, ARFIP1 / Fold change vs veh, ARFIP1 / RFU, FAM179B / Fold change vs veh, FAM179B / RFU, BCL10 / Fold change vs veh, BCL10 / RFU, UHRF1BP1L / Fold change vs veh, UHRF1BP1L / RFU, BET1 / Fold change vs veh, BET1 / RFU, CNOT2 / Fold change vs veh, CNOT2 / RFU, ZNF268 / Fold change vs veh, ZNF268 / Fold change vs veh, ZNF507 / RFU, DGCR2 / Fold change vs veh, DGCR2 / RFU, WDSUB1 / Fold change vs veh, WDSUB1 / Fold change vs veh, HSP90B1 /// MIR3652 / RFU, ADSS / Fold change vs veh, ADSS / RFU, GK / Fold change vs veh, GK / RFU, ZNF148 / Fold change vs veh, ZNF148 / RFU, TAF9 / Fold change vs veh, TAF9 / RFU, SLC1A5 / Fold change vs veh, SLC1A5 / RFU, SLMO2 / Fold change vs veh, SLMO2 / RFU, ABCC4 / Fold change vs veh, ABCC4 / RFU, LOC101060439 /// RAP1B / Fold change vs veh, LOC101060439 /// RAP1B / RFU, RFX7 / Fold change vs veh, RFX7 / RFU, GTPBP10 / Fold change vs veh, GTPBP10 / RFU, CNEP1R1 / Fold change vs veh, CNEP1R1 / RFU, BIVM-ERCC5 /// ERCC5 / Fold change vs veh, BIVM-ERCC5 /// ERCC5 / RFU, ILF3 / Fold change vs veh, ILF3 / RFU 11762660_at / Fold change /veh 11762660_at / RFU VCAN (11757783_s_at) / Fold change /veh VCAN (11757783_s_at) / RFU DDX43 (11728927_at) / Fold change /veh DDX43 (11728927_at) / RFU KRT8 (11758188_x_at) / Fold change /veh KRT8 (11758188_x_at) / RFU NKD1 (11759106_at) / Fold change /veh NKD1 (11759106_at) / RFU SRD5A1 (11742802_a_at) / Fold change /veh SRD5A1 (11742802_a_at) / RFU TPSAB1 /// TPSB2 (11721975_s_at) / Fold change /veh TPSAB1 /// TPSB2 (11721975_s_at) / RFU GSTM3 (11746129_a_at) / Fold change /veh GSTM3 (11746129_a_at) / RFU IL23R (11737362_x_at) / Fold change /veh IL23R (11737362_x_at) / RFU TMEM51 (11727254_a_at) / Fold change /veh TMEM51 (11727254_a_at) / RFU PIWIL2 (11732686_x_at) / Fold change /veh PIWIL2 (11732686_x_at) / RFU ORM1 (11744905_x_at) / Fold change /veh ORM1 (11744905_x_at) / RFU CCDC152 (11743942_at) / Fold change /veh CCDC152 (11743942_at) / RFU ECM1 (11717891_a_at) / Fold change /veh ECM1 (11717891_a_at) / RFU IL23R (11748794_a_at) / Fold change /veh IL23R (11748794_a_at) / RFU TNFAIP8L3 (11732012_x_at) / Fold change /veh TNFAIP8L3 (11732012_x_at) / RFU MBOAT4 (11741988_at) / Fold change /veh MBOAT4 (11741988_at) / RFU 11764193_at / Fold change /veh 11764193_at / RFU TMEM53 (11763286_at) / Fold change /veh TMEM53 (11763286_at) / RFU MAGEB2 (11727129_at) / Fold change /veh MAGEB2 (11727129_at) / RFU TMEM200A (11744735_a_at) / Fold change /veh TMEM200A (11744735_a_at) / RFU CCDC152 (11751479_a_at) / Fold change /veh CCDC152 (11751479_a_at) / RFU FAM211A (11726209_a_at) / Fold change /veh FAM211A (11726209_a_at) / RFU RGS16 (11746705_a_at) / Fold change /veh RGS16 (11746705_a_at) / RFU VCAN (11755009_s_at) / Fold change /veh VCAN (11755009_s_at) / RFU RHOB (11743442_s_at) / Fold change /veh RHOB (11743442_s_at) / RFU RGS16 (11720943_a_at) / Fold change /veh RGS16 (11720943_a_at) / RFU RGS16 (11720944_at) / Fold change /veh RGS16 (11720944_at) / RFU, VPS4B / Fold change vs veh, VPS4B / RFU, CREB1 / Fold change vs veh, CREB1 / RFU, DNAJC13 / Fold change vs veh, DNAJC13 / RFU, GNAQ / Fold change vs veh, GNAQ / RFU, CDK5R1 / Fold change vs veh, CDK5R1 / RFU, ZRANB3 / Fold change vs veh, ZRANB3 / RFU, CUL4A / Fold change vs veh, CUL4A / RFU, CCNY / Fold change vs veh, CCNY / RFU, UFL1 / Fold change vs veh, UFL1 / RFU, COG3 / Fold change vs veh, COG3 / RFU, DIAPH2 / Fold change vs veh, DIAPH2 / RFU, SKA2 / Fold change vs veh, SKA2 / RFU, AFF3 / Fold change vs veh, AFF3 / RFU, LMF1 / Fold change vs veh, LMF1 / RFU, IPO11 / Fold change vs veh, IPO11 / RFU, DFFB / Fold change vs veh, DFFB / RFU, FOXP1 / Fold change vs veh, FOXP1 / RFU, CARD8 / Fold change vs veh, CARD8 / RFU, STRN3 / Fold change vs veh, STRN3 / RFU, ADK / Fold change vs veh, ADK / RFU, RASSF2 / Fold change vs veh, RASSF2 / RFU, WIPF1 / Fold change vs veh, WIPF1 / RFU, LARP1B / Fold change vs veh, LARP1B / RFU, RASA1 / Fold change vs veh, RASA1 / RFU, RB1 / Fold change vs veh, RB1 / RFU, PPFIA1 / Fold change vs veh, PPFIA1 / RFU, MAT2A / Fold change vs veh, MAT2A / RFU, CCT5 / Fold change vs veh, CCT5 / RFU, WDR92 / Fold change vs veh, WDR92 / RFU, CUX1 / Fold change vs veh, CUX1 / RFU, TTC7A / Fold change vs veh, TTC7A / RFU, TMEM135 / Fold change vs veh, TMEM135 / RFU, DEPTOR / Fold change vs veh, DEPTOR / RFU, CPM / Fold change vs veh, CPM / RFU, DNAJB6 / Fold change vs veh, DNAJB6 / RFU, CACNA2D3 / Fold change vs veh, CACNA2D3 / RFU, DTX4 / Fold change vs veh, DTX4 / RFU, TFCP2 / Fold change vs veh, TFCP2 / RFU, GMCL1 /// GMCL1P1 / Fold change vs veh, GMCL1 /// GMCL1P1 / RFU, AEBP2 / Fold change vs veh, AEBP2 / RFU, SNHG1 /// SNORD22 /// SNORD25 /// SNORD26 /// SNORD27 /// SNORD28 /// SNORD29 /// SNORD31 / Fold change vs veh, SNHG1 /// SNORD22 /// SNORD25 /// SNORD26 /// SNORD27 /// SNORD28 /// SNORD29 /// SNORD31 / Fold change (Aza/veh), C12orf56 (ProbeSet 11735607_a_at) / Fold change (ACY-1035/veh), C12orf56 (ProbeSet 11735607_a_at) / Fold change (Aza/veh), FGFR1OP (ProbeSet 11751329_s_at) / Fold change (ACY-1035/veh), FGFR1OP (ProbeSet 11751329_s_at) / Fold change (Aza/veh), VPS36 (ProbeSet 11739960_a_at) / Fold change (ACY-1035/veh), VPS36 (ProbeSet 11739960_a_at) / RFU SYPL1 (11715823_x_at) / Fold change /veh SYPL1 (11715823_x_at) / RFU IGFBP7 (11715501_s_at) / Fold change /veh IGFBP7 (11715501_s_at) / RFU REEP3 (11722064_at) / Fold change /veh REEP3 (11722064_at) / RFU IGLL1 (11728026_x_at) / Fold change /veh IGLL1 (11728026_x_at): dose or concentration left out as unconfirmed
Settings: MV-4-11 cells, 48 hours

## Nc1ccc(-c2cccs2)cc1NC(=O)c1ccc2c(c1)cc(C1CC1)n2CCN1CCOCC1 [ACY-1035]
  RFU EBF3 (11725865_a_at): 63.04 RFU
